Measured values reported in US11999728B2, “Estrogen receptor modulators” (Recurium IP Holdings, LLC, priority 2020, dated 2024).

Test system: MCF7
Test: Breast Cancer Cell Proliferation Assay (MCF-7), Cell Titer-Glo
Format: cell-based
Settings: Homo sapiens, 120 h, MCF7 cells, 5 days of compound exposure
Description: Breast Cancer Cell Proliferation Assay (MCF-7)
MCF7 was expanded and maintained in the medium (Phenol red free DMEM/F12 (Hyclone SH30272.01) NEAA (Gibco11140-050) Na-pyruvate (Gibco 11360-070) and Re-stripped Charcoal stripped FBS (Gemini 100-119)). The cells were adjusted to a concentration of 3,000 cells per mL in the above media, and the cells were incubated (37° C., 5% CO2). The following day a 10-point, serial dilution of compounds was added to the cells at a final concentration ranging from 10-0.000005 μM for test compounds (17β-estradiol was used as a control). Additional cells were plated in 30 wells to serve as the day 1 (pretreatment) comparison. After 5 days of compound exposure, Cell Titer-Glo reagent was added to the cells and the relative luminescence units (RLUs) of each well was determined. Cell Titer-Glo was also added to 32 μL of medium without cells to obtain a background value. The plates were allowed to incubate at room temperature for 10 minutes to stabilize luminescent signal and the luminescence signal was recorded with EnSpire. The relative increase in cell number of each sample is determined as follows: (RLU sample-RLU background/RLU estrogen only treated cells-RLU background)×100=% inhibition.

Row | SMILES | IC50
1 | C[C@@H]1Cc2c([nH]c3ccccc23)[C@@H](c2ccc(NC3CN(CCC#N)C3)cn2)N1C12CC(C1)C2 [Compound 4, 3-(3-((6-((1S,3R)-2-(bicyclo[1.1.1]pentan-1-yl)-3-methyl-2,3,4,9-tetrahydro-1H-pyrido[3,4-b]indol-1-yl)pyridin-3-yl)amino)azetidin-1-yl)propanenitrile] | 25 to 250 nM

Same assay, conditions: Homo sapiens, MCF7, 120 h, MCF7 cells, 5 days of compound exposure

Row | SMILES | IC50
2 | C[C@@H]1Cc2c([nH]c3ccccc23)[C@@H](c2ccc(NCCN3CCC(F)C3)nc2)N1C12CC(C1)C2 (stereo partly drawn) [Compound 28, 5-((1R,3R)-2-(bicyclo[1.1.1]pentan-1-yl)-3-methyl-2,3,4,9-tetrahydro-1H-pyrido[3,4-b]indol-1-yl)-N-(2-(3-fluoropyrrolidin-1-yl)ethyl)pyridin-2-amine] | ≥ 250 nM
3 | CCCN1CC(Oc2ccc([C@@H]3c4[nH]c5ccccc5c4C[C@@H](C)N3C34CC(C3)C4)cn2)C1 [Compound 43, (1R,3R)-2-(bicyclo[1.1.1]pentan-1-yl)-3-methyl-1-(6-((1-propylazetidin-3-yl)oxy)pyridin-3-yl)-2,3,4,9-tetrahydro-1H-pyrido[3,4-b]indole] | 25 to 250 nM
4 | C[C@@H]1Cc2c([nH]c3ccccc23)[C@@H](c2ccc(OCCN3CC(CF)C3)cc2F)N1C12CC(C1)C2 [Compound 25, (1R,3R)-2-(bicyclo[1.1.1]pentan-1-yl)-1-(2-fluoro-4-(2-(3-(fluoromethyl)azetidin-1-yl)ethoxy)phenyl)-3-methyl-2,3,4,9-tetrahydro-1H-pyrido[3,4-b]indole] | ≤ 25 nM
5 | C[C@@H]1Cc2c([nH]c3ccccc23)[C@@H](c2ccc(OC3CN(C4CC4)C3)cc2)N1C12CC(C1)C2 [Compound 47, (1R,3R)-2-(bicyclo[1.1.1]pentan-1-yl)-1-(4-((1-cyclopropylazetidin-3-yl)oxy)phenyl)-3-methyl-2,3,4,9-tetrahydro-1H-pyrido[3,4-b]indole] | ≤ 25 nM
6 | CCCN1CC(Oc2ccc([C@@H]3c4[nH]c5ccccc5c4C[C@@H](C)N3C34CC(CO)(C3)C4)cc2)C1 (single isomer, unassigned) [Compound 52] | ≤ 25 nM
7 | C[C@@H]1Cc2c([nH]c3ccccc23)[C@@H](c2c(F)cc(NC3CN(CCCF)C3)cc2F)N1C12CC(CO)(C1)C2 (single isomer, unassigned) [Compound 18] | ≤ 25 nM
8 | CCCNCC1CCN(c2ccc([C@@H]3c4[nH]c5ccccc5c4C[C@@H](C)N3C34CC(C3)C4)cc2)CC1 [Compound 93, N-((1-(4-((1R,3R)-2-(bicyclo[1.1.1]pentan-1-yl)-3-methyl-2,3,4,9-tetrahydro-1H-pyrido[3,4-b]indol-1-yl)phenyl)piperidin-4-yl)methyl)propan-1-amine] | ≤ 25 nM
9 | C[C@@H]1Cc2c([nH]c3ccccc23)[C@@H](c2ccc(NCCN3CCC(CF)C3)nc2)N1C12CC(C1)C2 (stereo partly drawn) [Compound 29, 5-((1R,3R)-2-(bicyclo[1.1.1]pentan-1-yl)-3-methyl-2,3,4,9-tetrahydro-1H-pyrido[3,4-b]indol-1-yl)-N-(2-(3-(fluoromethyl)pyrrolidin-1-yl)ethyl)pyridin-2-amine] | ≥ 250 nM
10 | C[C@@H]1Cc2c([nH]c3ccccc23)[C@@H](c2ccc(O[C@H]3CCN(CCCF)C3)cn2)N1C12CC(C1)C2 (single isomer, unassigned) [Compound 12] | 25 to 250 nM
11 | CCCN1C[C@@H](F)[C@@H](Nc2ccc([C@@H]3c4[nH]c5ccccc5c4C[C@@H](C)N3C34CC(C3)C4)cc2)C1 (single isomer, unassigned) [Compound 86] | 25 to 250 nM
12 | C[C@@H]1Cc2c([nH]c3ccccc23)[C@@H](c2c(F)cc(O[C@@H]3CCN(CCCF)C3)cc2F)N1C12CC(C(N)=O)(C1)C2 (single isomer, unassigned) [Compound 34] | 25 to 250 nM
13 | C[C@@H]1Cc2c([nH]c3ccccc23)[C@@H](c2ccc(NC3CN(CC(C)(F)F)C3)cc2)N1C12CC(C1)C2 [Compound 88, N-(4-((1R,3R)-2-(bicyclo[1.1.1]pentan-1-yl)-3-methyl-2,3,4,9-tetrahydro-1H-pyrido[3,4-b]indol-1-yl)phenyl)-1-(2,2-difluoropropyl)azetidin-3-amine] | 25 to 250 nM
14 | CCCN1CC[C@H](Nc2cnc([C@@H]3c4[nH]c5ccccc5c4C[C@@H](C)N3C34CC(C3)C4)cn2)C1 [Compound 54, 5-((1S,3R)-2-(bicyclo[1.1.1]pentan-1-yl)-3-methyl-2,3,4,9-tetrahydro-1H-pyrido[3,4-b]indol-1-yl)-N—((S)-1-propylpyrrolidin-3-yl)pyrazin-2-amine] | ≤ 25 nM
15 | CCCN1C[C@@H](Nc2ccc([C@@H]3c4[nH]c5ccccc5c4C[C@@H](C)N3C34CC(C3)C4)cc2)C[C@@H]1C [Compound 89, (3S,5S)—N-(4-((1R,3R)-2-(bicyclo[1.1.1]pentan-1-yl)-3-methyl-2,3,4,9-tetrahydro-1H-pyrido[3,4-b]indol-1-yl)phenyl)-5-methyl-1-propylpyrrolidin-3-amine] | 25 to 250 nM
16 | C[C@@H]1Cc2c([nH]c3ccccc23)[C@@H](c2ccc(N[C@H]3CCN(CCCF)C3)nc2)N1C12CC(C1)C2 [Compound 20, 5-((1R,3R)-2-(bicyclo[1.1.1]pentan-1-yl)-3-methyl-2,3,4,9-tetrahydro-1H-pyrido[3,4-b]indol-1-yl)-N—((S)-1-(3-fluoropropyl)pyrrolidin-3-yl)pyridin-2-amine] | ≤ 25 nM
17 | CCCN1C[C@H](F)[C@H](Nc2ccc([C@@H]3c4[nH]c5ccccc5c4C[C@@H](C)N3C34CC(C3)C4)cc2)C1 (single isomer, unassigned) [Compound 85] | ≤ 25 nM
18 | C[C@H]1Cc2c([nH]c3ccccc23)[C@H](c2ccc(OC3CN(CCCF)C3)cc2)N1C12CC(CO)(C1)C2 (single isomer, unassigned) [Compound 51] | 25 to 250 nM
19 | C[C@H]1Cc2c([nH]c3ccccc23)[C@H](c2ccc(NC3CN(CCCF)C3)cc2)N1C12CC(CF)(C1)C2 (single isomer, unassigned) [Compound 63] | ≤ 25 nM
20 | C[C@@H]1Cc2c([nH]c3ccccc23)[C@@H](c2ncc(OC3CN(CCCF)C3)cn2)N1C12CC(C1)C2 [Compound 61, (1S,3R)-2-(bicyclo[1.1.1]pentan-1-yl)-1-(5-((1-(3-fluoropropyl)azetidin-3-yl)oxy)pyrimidin-2-yl)-3-methyl-2,3,4,9-tetrahydro-1H-pyrido[3,4-b]indole] | ≥ 250 nM
21 | C=CCN1CC(Nc2ccc([C@@H]3c4[nH]c5ccccc5c4C[C@@H](C)N3C34CC(C3)C4)cc2)C1 [Compound 64, 1-allyl-N-(4-((1R,3R)-2-(bicyclo[1.1.1]pentan-1-yl)-3-methyl-2,3,4,9-tetrahydro-1H-pyrido[3,4-b]indol-1-yl)phenyl)azetidin-3-amine] | ≤ 25 nM
22 | C[C@@H]1Cc2c([nH]c3ccccc23)[C@@H](c2ccc(NC3CN(CCCF)C3)cc2)N1C12CC(CF)(C1)C2 (single isomer, unassigned) [Compound 62] | ≥ 250 nM
23 | C#CCN1CC(Nc2ccc([C@@H]3c4[nH]c5ccccc5c4C[C@@H](C)N3C34CC(C3)C4)nc2)C1 [Compound 48, 6-((1S,3R)-2-(bicyclo[1.1.1]pentan-1-yl)-3-methyl-2,3,4,9-tetrahydro-1H-pyrido[3,4-b]indol-1-yl)-N-(1-(prop-2-yn-1-yl)azetidin-3-yl)pyridin-3-amine] | ≤ 25 nM
24 | C[C@@H]1Cc2c([nH]c3ccccc23)[C@@H](c2ccc(O[C@@H]3CCN(CCCF)C3)nc2)N1C12CC(C1)C2 (single isomer, unassigned) [Compound 9] | 25 to 250 nM
25 | CCCN1C[C@@H](F)[C@H](Nc2ccc([C@@H]3c4[nH]c5ccccc5c4C[C@@H](C)N3C34CC(C3)C4)cc2)C1 [Compound 87, (3R,4R)—N-(4-((1R,3R)-2-(bicyclo[1.1.1]pentan-1-yl)-3-methyl-2,3,4,9-tetrahydro-1H-pyrido[3,4-b]indol-1-yl)phenyl)-4-fluoro-1-propylpyrrolidin-3-amine] | ≤ 25 nM
26 | C[C@@H]1Cc2c([nH]c3ccccc23)[C@@H](c2ccc(OCCN3CC(CF)C3)cc2)N1C12CC(C1)C2 [Compound 24, (1R,3R)-2-(bicyclo[1.1.1]pentan-1-yl)-1-(4-(2-(3-(fluoromethyl)azetidin-1-yl)ethoxy)phenyl)-3-methyl-2,3,4,9-tetrahydro-1H-pyrido[3,4-b]indole] | ≤ 25 nM
27 | C[C@@H]1Cc2c([nH]c3ccccc23)[C@@H](c2c(F)cc(NC3CN(CCF)C3)cc2F)N1C12CC(C1)C2 [Compound 56, N-(4-((1R,3R)-2-(bicyclo[1.1.1]pentan-1-yl)-3-methyl-2,3,4,9-tetrahydro-1H-pyrido[3,4-b]indol-1-yl)-3,5-difluorophenyl)-1-(2-fluoroethyl)azetidin-3-amine] | ≤ 25 nM
28 | C[C@@H]1Cc2c([nH]c3ccccc23)[C@@H](c2c(F)cc(NC3CN(CCCF)C3)cc2F)N1C12CC(C(N)=O)(C1)C2 (single isomer, unassigned) [Compound 76] | 25 to 250 nM
29 | C[C@@H]1Cc2c([nH]c3ccccc23)[C@@H](c2c(F)cc(OC3CN(CCCF)C3)cc2F)N1C12CC(C1)C2 [Compound 23, (1R,3R)-2-(bicyclo[1.1.1]pentan-1-yl)-1-(2,6-difluoro-4-((1-(3-fluoropropyl)azetidin-3-yl)oxy)phenyl)-3-methyl-2,3,4,9-tetrahydro-1H-pyrido[3,4-b]indole] | ≤ 25 nM
30 | C[C@@H]1Cc2c([nH]c3ccccc23)[C@@H](c2ccc(N[C@@H]3CN(CCCF)C[C@@H]3F)cc2)N1C12CC(C1)C2 (single isomer, unassigned) [Compound 73] | ≤ 25 nM
